pIC50: −log10 of the molar value.
target: T1, Human complement C1s enzyme (Homo sapiens, UniProt P09871); assay: Human C1s enzyme assay; type: biochemical; conditions: human complement C1s enzyme 1.16 nM, substrate Z-L-Lys-SBzl 100 μM, 5 min preincubation; read-out: IC50 (Stars), C1s Inhibiting Activity
T1 sequence (P09871 438-688 limits assumed): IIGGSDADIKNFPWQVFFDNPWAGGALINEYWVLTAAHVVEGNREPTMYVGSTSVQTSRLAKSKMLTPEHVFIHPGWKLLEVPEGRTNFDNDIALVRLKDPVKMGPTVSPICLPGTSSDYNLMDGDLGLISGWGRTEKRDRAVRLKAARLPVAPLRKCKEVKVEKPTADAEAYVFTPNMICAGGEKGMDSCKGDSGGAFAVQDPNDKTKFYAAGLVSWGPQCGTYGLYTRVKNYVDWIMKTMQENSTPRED
T1 sequence (P09871 16-437 partner limits assumed): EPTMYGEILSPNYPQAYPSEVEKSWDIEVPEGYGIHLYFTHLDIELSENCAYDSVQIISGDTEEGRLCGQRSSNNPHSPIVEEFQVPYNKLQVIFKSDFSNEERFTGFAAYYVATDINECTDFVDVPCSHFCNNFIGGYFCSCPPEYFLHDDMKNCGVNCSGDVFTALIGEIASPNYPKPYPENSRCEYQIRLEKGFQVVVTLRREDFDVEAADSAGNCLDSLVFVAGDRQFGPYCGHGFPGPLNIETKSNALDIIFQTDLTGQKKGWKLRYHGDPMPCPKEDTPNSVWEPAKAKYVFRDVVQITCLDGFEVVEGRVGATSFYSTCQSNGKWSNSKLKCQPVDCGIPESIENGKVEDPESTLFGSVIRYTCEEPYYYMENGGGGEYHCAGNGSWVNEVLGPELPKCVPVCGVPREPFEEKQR
In short: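 IC50 from nonlinear regression of reaction rates versus compound concentration, with rates taken from A405 recorded at 30 s intervals over 30 min after adding 100 μM Z-L-Lys-SBzl plus 100 μM DTNB. Enzyme was human C1s purified from serum, 1.16 nM, given 5 min compound preincubation at room temperature, pH 7.5 Tris/1 M NaCl.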

Structure (SMILES) | pIC50
O=C(NCC(=O)N1C[C@H](OC(F)F)C[C@H]1C(=O)NCc1ccc2c(c1)CCNC2)c1ccc2c(c1)Oc1ccccc1S2 [Compound 223, (2S,4R)-4-(difluoromethoxy)-1-((phenoxathiine-3-carbonyl)glycyl)-N-((1,2,3,4-tetrahydroisoquinolin-6-yl)methyl)pyrrolidine-2-carboxamide] | 6.00 to 7.00
C[C@@H](NC(=O)[C@@H]1C[C@@H](S(C)(=O)=O)CN1C(=O)CNC(=O)c1ccc(-c2ccc(F)cc2F)cc1)c1cc2cnccc2[nH]1 [Compound 85, (2S,4R)-N-((R)-1-(1H-pyrrolo[3,2-c]pyridin-2-yl)ethyl)-1-((2′,4′-difluoro-[1,1′-biphenyl]-4-carbonyl)glycyl)-4-(methylsulfonyl)pyrrolidine-2-carboxamide] | < 6.00
CS(=O)(=O)[C@@H]1C[C@@H](C(=O)NCc2cc3cnccc3[nH]2)N(C(=O)CNC(=O)c2ccc3c(c2)Oc2ccccc2S3)C1 [Compound 27, (2S,4R)-N-((1H-pyrrolo[3,2-c]pyridin-2-yl)methyl)-4-(methylsulfonyl)-1-((phenoxathiine-3-carbonyl)glycyl)pyrrolidine-2-carboxamide] | > 7.00
C[C@@H](NC(=O)[C@@H]1C[C@@H](OC(F)F)CN1C(=O)CNC(=O)c1ccc2c(c1)-c1ccccc1C2(F)F)c1cc2cnccc2s1 [Compound 207, (2S,4R)-1-((9,9-difluoro-9H-fluorene-3-carbonyl)glycyl)-4-(difluoromethoxy)-N-((R)-1-(thieno[3,2-c]pyridin-2-yl)ethyl)pyrrolidine-2-carboxamide] | < 6.00
O=C(NCC(=O)N1CC2(C[C@H]1C(=O)NCc1cc3cnccc3[nH]1)OCCO2)c1ccc2c(c1)Sc1ccccc1O2 [Compound 24, (S)-N-((1H-pyrrolo[3,2-c]pyridin-2-yl)methyl)-7-((phenoxathiine-2-carbonyl)glycyl)-1,4-dioxa-7-azaspiro[4.4]nonane-8-carboxamide] | > 7.00
COC[C@@]1(F)C[C@@H](C(=O)NCc2cc3cnccc3[nH]2)N(C(=O)CNC(=O)c2ccc3c(c2)Oc2ccccc2S3)C1 [Compound 25, (2S,4R)-N-((1H-pyrrolo[3,2-c]pyridin-2-yl)methyl)-4-fluoro-4-(methoxymethyl)-1-((phenoxathiine-3-carbonyl)glycyl)pyrrolidine-2-carboxamide] | > 7.00
O=C(NCC(=O)N1CC2(C[C@H]1C(=O)NCc1cc3c(Cl)nccc3[nH]1)OCCO2)c1ccc2c(c1)Oc1ccccc1S2 [Compound 42, (S)-N-((4-chloro-1H-pyrrolo[3,2-c]pyridin-2-yl)methyl)-7-((phenoxathiine-3-carbonyl)glycyl)-1,4-dioxa-7-azaspiro[4.4]nonane-8-carboxamide] | < 6.00
O=C(NCC(=O)N1C[C@H](OC(F)F)C[C@H]1C(=O)NCc1ccc2cn[nH]c2c1)c1ccc2c(c1)Oc1ccccc1S2 [Compound 199, (2S,4R)-N-((1H-indazol-6-yl)methyl)-4-(difluoromethoxy)-1-((phenoxathiine-3-carbonyl)glycyl)pyrrolidine-2-carboxamide] | < 6.00
O=C(NCc1cc2cnccc2[nH]1)[C@@H]1C[C@@H](OC(F)F)CN1C(=O)CN1Cc2ncc(-c3ccc(F)cc3)cc2C1=O [Compound 138, (2S,4R)-N-((1H-pyrrolo[3,2-c]pyridin-2-yl)methyl)-4-(difluoromethoxy)-1-(2-(3-(4-fluorophenyl)-5-oxo-5,7-dihydro-6H-pyrrolo[3,4-b]pyridin-6-yl)acetyl)pyrrolidine-2-carboxamide] | < 6.00
C[C@@]12C[C@@H]1N(C(=O)CNC(=O)c1ccc3c(c1)Oc1ccccc1S3)[C@H](C(=O)NCc1ccc3nc(N)[nH]c3c1)C2 [Compound 181, (1S,3S,5S)-N-((2-amino-1H-benzo[d]imidazol-6-yl)methyl)-5-methyl-2-((phenoxathiine-3-carbonyl)glycyl)-2-azabicyclo[3.1.0]hexane-3-carboxamide] | > 7.00
C[C@@H](NC(=O)[C@@H]1CC2(CN1C(=O)CNC(=O)c1ccc3c(c1)Oc1ccccc1S3)OCCO2)c1cc2cnccc2[nH]1 [Compound 47, (S)-N-((R)-1-(1H-pyrrolo[3,2-c]pyridin-2-yl)ethyl)-7-((phenoxathiine-3-carbonyl)glycyl)-1,4-dioxa-7-azaspiro[4.4]nonane-8-carboxamide] | > 7.00
O=C(NCC(=O)N1C[C@H](OC(F)F)C[C@H]1C(=O)NCc1ccc2nncn2c1)c1ccc2c(c1)Oc1ccccc1S2 [Compound 225, (2S,4R)-N-([1,2,4]triazolo[4,3-a]pyridin-6-ylmethyl)-4-(difluoromethoxy)-1-((phenoxathiine-3-carbonyl)glycyl)pyrrolidine-2-carboxamide] | < 6.00
Cc1ccc(Oc2cccc(C(=O)NCC(=O)N3C[C@H](OC(F)F)C[C@H]3C(=O)NCc3c(C)cc(N)nc3C)c2F)cc1 [Compound 374, (2S,4R)-N-((6-amino-2,4-dimethylpyridin-3-yl)methyl)-4-(difluoromethoxy)-1-((2-fluoro-3-(p-tolyloxy)benzoyl)glycyl) pyrrolidine-2-carboxamide] | < 6.00
C[C@@H](NC(=O)[C@@H]1C[C@](F)(CO)CN1C(=O)CNC(=O)c1ccc2c(c1)Oc1ccccc1S2)c1cc2cnccc2[nH]1 [Compound 148, (2S,4R)-N-((R)-1-(1H-pyrrolo[3,2-c]pyridin-2-yl)ethyl)-4-fluoro-4-(hydroxymethyl)-1-((phenoxathiine-3-carbonyl)glycyl)pyrrolidine-2-carboxamide] | > 7.00
O=C(NCC(=O)N1C[C@H](OC(F)F)C[C@H]1C(=O)NCc1cc2cnccc2[nH]1)c1ccccc1Oc1ccccc1 [Compound 239, (2S,4R)-N-((1H-pyrrolo[3,2-c]pyridin-2-yl)methyl)-4-(difluoromethoxy)-1-((2-phenoxybenzoyl)glycyl)pyrrolidine-2-carboxamide] | < 6.00
C[C@@]12C[C@@H]1N(C(=O)CNC(=O)c1cccc(Oc3ccccc3)c1)[C@H](C(=O)NCc1cc3cnccn3c1)C2 [Compound 277, (1S,3S,5S)-5-methyl-2-((3-phenoxybenzoyl)glycyl)-N-(pyrrolo[1,2-a]pyrazin-7-ylmethyl)-2-azabicyclo[3.1.0]hexane-3-carboxamide] | > 7.00

The remaining lines, values ahead:

pIC50 | Structure (SMILES)
< 6.00 | C[C@@H](NC(=O)[C@@H]1C[C@]2(C)C[C@@H]2N1C(=O)CNC(=O)c1ccc2c(c1)-c1ccccc1C2(F)F)c1cc2cnccc2[nH]1 [Compound 76, (1S,3S,5S)-N-((R)-1-(1H-pyrrolo[3,2-c]pyridin-2-yl)ethyl)-2-((9,9-difluoro-9H-fluorene-3-carbonyl)glycyl)-5-methyl-2-azabicyclo[3.1.0]hexane-3-carboxamide]
> 7.00 | C[C@@H](NC(=O)[C@@H]1C[C@]2(C)C[C@@H]2N1C(=O)CNC(=O)c1ccc2c(c1)Oc1ccccc1S2)c1cc2cnccc2s1 [Compound 231, (1S,3S,5S)-5-methyl-2-((phenoxathiine-3-carbonyl)glycyl)-N-((R)-1-(thieno[3,2-c]pyridin-2-yl)ethyl)-2-azabicyclo[3.1.0]hexane-3-carboxamide]
> 7.00 | O=C(NCc1cc2cnccc2[nH]1)[C@@H]1CC2(CN1C(=O)CN1Cc3ccc(-c4ccc(F)cc4F)cc3C1=O)OCCO2 [Compound 125, (S)-N-((1H-pyrrolo[3,2-c]pyridin-2-yl)methyl)-7-(2-(6-(2,4-difluorophenyl)-1-oxoisoindolin-2-yl)acetyl)-1,4-dioxa-7-azaspiro[4.4]nonane-8-carboxamide]
< 6.00 | CN1CCc2sc(CNC(=O)[C@@H]3C[C@@H](OC(F)F)CN3C(=O)CNC(=O)c3ccc4c(c3)Oc3ccccc3S4)cc2C1 [Compound 347, (2S,4R)-4-(difluoromethoxy)-N-((5-methyl-4,5,6,7-tetrahydrothieno[3,2-c]pyridin-2-yl)methyl)-1-((phenoxathiine-3-carbonyl)glycyl) pyrrolidine-2-carboxamide]
> 7.00 | O=C(NCC(=O)N1CC2(C[C@H]1C(=O)NCc1cc3cnccc3[nH]1)OCCO2)c1cccc(Oc2ccccc2)c1 [Compound 144, (S)-N-((1H-pyrrolo[3,2-c]pyridin-2-yl)methyl)-7-((3-phenoxybenzoyl)glycyl)-1,4-dioxa-7-azaspiro[4.4]nonane-8-carboxamide]
> 7.00 | O=C(NCC(=O)N1C[C@H](OC(F)F)C[C@H]1C(=O)NCc1cc2cnccc2[nH]1)c1cccc(Oc2ccccc2F)c1 [Compound 299, (2S,4R)-N-((1H-pyrrolo[3,2-c]pyridin-2-yl)methyl)-4-(difluoromethoxy)-1-((3-(2-fluorophenoxy)benzoyl)glycyl) pyrrolidine-2-carboxamide]
< 6.00 | O=C(NCC(=O)N1C[C@H](OC(F)F)C[C@H]1C(=O)NCc1ccc2ccncc2c1)c1ccc2c(c1)Oc1ccccc1S2 [Compound 249, (2S,4R)-4-(difluoromethoxy)-N-(isoquinolin-7-ylmethyl)-1-((phenoxathiine-3-carbonyl)glycyl)pyrrolidine-2-carboxamide]

Source: patent US20260062443A1 (ALEXION PHARMACEUTICALS, INC., priority 2022, published 2026)
